Data published in patent US20230089073A1 (Carmot Therapeutics, Inc., priority 2021, published 2023).

Target: T1, human GLP-1 receptor (Homo sapiens, UniProt P43220)
T1 construct: expressed in transfected cells
Experiment: GLP-1R cAMP Assay
Type: cell-based
Details: cAMP accumulation in CHO cells stably overexpressing the human GLP-1 receptor; 30 min treatment; HitHunter cAMP kit; read-out: EC50
Method in brief: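 Luminescent enzyme-complementation detection of cAMP, read after cell lysis and overnight incubation, with dose-response curve fitting. Stimulation lasted 30 min, using 20-point triplicate dosing on CHO cells (10,000 per well) stably overexpressing human GLP-1R.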

T1 sequence (P43220 24-463): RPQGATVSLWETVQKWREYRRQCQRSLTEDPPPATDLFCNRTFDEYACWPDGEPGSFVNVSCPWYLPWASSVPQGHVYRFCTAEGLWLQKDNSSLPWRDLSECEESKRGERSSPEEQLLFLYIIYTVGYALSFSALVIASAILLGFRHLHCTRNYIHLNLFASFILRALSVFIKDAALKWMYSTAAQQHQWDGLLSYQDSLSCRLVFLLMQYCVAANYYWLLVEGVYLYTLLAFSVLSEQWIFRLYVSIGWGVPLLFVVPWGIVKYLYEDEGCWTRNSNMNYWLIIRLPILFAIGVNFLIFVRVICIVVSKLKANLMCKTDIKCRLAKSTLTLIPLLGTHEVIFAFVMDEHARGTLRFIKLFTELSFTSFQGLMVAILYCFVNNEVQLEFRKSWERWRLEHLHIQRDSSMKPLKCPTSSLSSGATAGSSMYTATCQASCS

O=C(O)c1ccc2nc(CN3CCC(Oc4ccnc(COc5ccc(Cl)cc5Cl)c4)CC3)n(C[C@@H](O)CCO)c2c1 [Compound 227, 2-{[4-({2-[(2,4-dichlorophenoxy)methyl]pyridin-4-yl}oxy)piperidin-1-yl]methyl}-1-[(2S)-2,4-dihydroxybutyl]-1H-1,3-benzodiazole-6-carboxylic acid]
EC50: < 50 nM

N#Cc1ccc(OCc2cccc(OC3CCN(Cc4nc5ccc(C(=O)O)nc5n4C[C@@H]4CCO4)CC3)n2)c(F)c1 [Example 372, (S)-2-((4-((6-((4-Cyano-2-fluorophenoxy)methyl)pyridin-2-yl)oxy)piperidin-1-yl)methyl)-3-(oxetan-2-ylmethyl)-3H-imidazo[4,5-b]pyridine-5-carboxylic acid]
EC50: < 50 nM

O=C(O)c1ccc2nc(CN3CCc4[nH]c5ccc(OC(F)(F)F)cc5c4C3)n(C[C@@H]3CCO3)c2c1 [Compound 53, 1-{[(2S)-oxetan-2-yl]methyl}-2-{[8-(trifluoromethoxy)-1H,2H,3H,4H,5H-pyrido[4,3-b]indol-2-yl]methyl}-1H-1,3-benzodiazole-6-carboxylic acid]
EC50: > 500 nM

Cc1cccc(Oc2cccc(C(=O)N3CCN(Cc4nc5ccc(C(=O)O)cc5n4C[C@@H]4CCO4)CC3)c2)c1 [Compound 17, 2-({4-[3-(3-methylphenoxy)benzoyl]piperazin-1-yl}methyl)-1-{[(2S)-oxetan-2-yl]methyl}-1H-1,3-benzodiazole-6-carboxylic acid]
EC50: > 500 nM

Cc1ccc(N(C)c2cc(C(=O)N3CCN(Cc4nc5ccc(C(=O)O)cc5n4C[C@@H]4CCO4)CC3)ccc2F)c(Cl)c1 [Example 95, (S)-2-((4-(3-((2-Chloro-4-methylphenyl)(methyl)amino)-4-fluorobenzoyl)piperazin-1-yl)methyl)-1-(oxetan-2-ylmethyl)-1H-benzo[d]imidazole-6-carboxylic acid]
EC50: 50 to 500 nM

Cc1ccc(N(C)c2ccc(C)c(C(=O)N3CCN(Cc4nc5ccc(C(=O)O)cc5n4C[C@@H]4CCO4)CC3)c2)c(Cl)c1 [Compound 75, 2-[(4-{5-[(2-chloro-4-methylphenyl)(methyl)amino]-2-methylbenzoyl}piperazin-1-yl)methyl]-1-{[(2S)-oxetan-2-yl]methyl}-1H-1,3-benzodiazole-6-carboxylic acid]
EC50: < 50 nM

Cn1cncc1Cn1c(CN2CCC(Oc3ccnc(COc4ccc(Cl)cc4F)c3)CC2)nc2ccc(C(=O)O)cc21 [Compound 267, 2-{[4-({2-[(4-chloro-2-fluorophenoxy)methyl]pyridin-4-yl}oxy)piperidin-1-yl]methyl}-1-[(1-methyl-1H-imidazol-5-yl)methyl]-1H-1,3-benzodiazole-6-carboxylic acid]
EC50: < 50 nM

Cc1cc(C(=O)O)cc2c1nc(CN1CC[C@H](Oc3ccnc(COc4ccc(C#N)cc4F)c3)C[C@@H]1C)n2C[C@@H]1CCO1 [Compound 503, 2-{[(2S,4S)-4-({2-[(4-cyano-2-fluorophenoxy)methyl]pyridin-4-yl}oxy)-2-methylpiperidin-1-yl]methyl}-4-methyl-1-{[(2S)-oxetan-2-yl]methyl}-1H-1,3-benzodiazole-6-carboxylic acid]
EC50: < 50 nM

O=C(O)c1ccc2nc(CN3CCN(Cc4cc5ccc(-c6ccc(Cl)cc6F)cc5o4)CC3)n(C[C@@H]3CCO3)c2c1 [Compound 28, 2-[(4-{[6-(4-chloro-2-fluorophenyl)-1-benzofuran-2-yl]methyl}piperazin-1-yl)methyl]-1-{[(2S)-oxetan-2-yl]methyl}-1H-1,3-benzodiazole-6-carboxylic acid]
EC50: > 500 nM

Cc1ccc(N(C)c2cccc(S(=O)(=O)N3CCN(Cc4nc5ccc(C(=O)O)cc5n4C[C@@H]4CCO4)CC3)c2)c(Cl)c1 [Compound 86, 2-[(4-{3-[(2-chloro-4-methylphenyl)(methyl)amino]benzenesulfonyl}piperazin-1-yl)methyl]-1-{[(2S)-oxetan-2-yl]methyl}-1H-1,3-benzodiazole-6-carboxylic acid]
EC50: > 500 nM

N#Cc1ccc(COc2cccc(N3CCN(C(=O)c4ccc(-c5nnn[nH]5)nc4)CC3)n2)c(F)c1 [Example 92, 4-(((6-(4-(6-(1H-Tetrazol-5-yl)nicotinoyl)piperazin-1-yl)pyridin-2-yl)oxy)methyl)-3-fluorobenzonitrile]
EC50: 50 to 500 nM

Cc1c(Cl)cccc1OCc1ccc(CN2CCN(Cc3nc4ccc(C(=O)O)cc4n3C[C@@H]3CCO3)CC2)o1 [Compound 8, 2-{[4-({5-[(3-chloro-2-methylphenoxy)methyl]furan-2-yl}methyl)piperzin-1-yl]methyl}-1-{[(2S)-oxetan-2-yl]methyl}-1H-1,3-benzodiazole-6-carboxylic acid]
EC50: 50 to 500 nM

O=C(O)c1cc(F)c2nc(CN3CCC(Oc4ccnc(COc5ccc(C(F)F)cc5F)c4)CC3)n(C[C@@H]3CCO3)c2c1 [Compound 302]
EC50: < 50 nM

CCn1cncc1Cn1c(CN2CCC(Cc3cnc(COc4ccc(Cl)cc4Cl)o3)CC2)nc2ccc(C(=O)O)cc21 [Compound 124, 2-{[4-({2-[(2,4-dichlorophenoxy)methyl]-1,3-oxazol-5-yl}methyl)piperidin-1-yl]methyl}-1-[(1-ethyl-1H-imidazol-5-yl)methyl]-1H-1,3-benzodiazole-6-carboxylic acid]
EC50: < 50 nM

O=C(O)c1ccc2nc(CN3CCC(Oc4ccnc(COc5ccc(C6CC6)cc5F)n4)CC3)n(C[C@@H]3CCO3)c2c1 [Compound 475, 2-{[4-({2-[(4-cyclopropyl-2-fluorophenoxy)methyl]pyrimidin-4-yl}oxy)piperidin-1-yl]methyl}-1-{[(2S)-oxetan-2-yl]methyl}-1H-1,3-benzodiazole-6-carboxylic acid]
EC50: < 50 nM

C[C@H]1C[C@@H](Oc2ccnc(COc3ccc(Cl)cc3C#N)n2)CCN1Cc1nc2ccc(C(=O)O)cc2n1C[C@@H]1CCO1 [Compound 489, 2-{[(2S,4S)-4-({2-[(4-chloro-2-cyanophenoxy)methyl]pyrimidin-4-yl}oxy)-2-methylpiperidin-1-yl]methyl}-1-{[(2S)-oxetan-2-yl]methyl}-1H-1,3-benzodiazole-6-carboxylic acid]
EC50: < 50 nM

Cc1ccc(N(C)c2ccc(F)c(C(=O)N3CCN(Cc4nc5ccc(C(=O)O)cc5n4C[C@@H]4CCO4)CC3)c2)c(Cl)c1 [Compound 98, 2-[(4-{5-[(2-chloro-4-methylphenyl)(methyl)amino]-2-fluorobenzoyl}piperazin-1-yl)methyl]-1-{[(2S)-oxetan-2-yl]methyl}-1H-1,3-benzodiazole-6-carboxylic acid]
EC50: < 50 nM

Cc1ccc(N(C)c2cccc(C=C3CCN(Cc4nc5ccc(C(=O)O)cc5n4C[C@@H]4CCO4)CC3)c2)c(Cl)c1 [Example 106, (S)-2-((4-(3-((2-chloro-4-methylphenyl)(methyl)amino)benzylidene)piperidin-1-yl)methyl)-1-(oxetan-2-ylmethyl)-1H-benzo[d]imidazole-6-carboxylic acid]
EC50: 50 to 500 nM

Clc1ccc(COc2cccc(C3=CCN(Cc4ccc(-c5nn[nH]n5)nc4)CC3)n2)c(Cl)c1 [Example 110, 1′-((6-(2H-Tetrazol-5-yl)pyridin-3-yl)methyl)-6-((2,4-dichlorobenzyl)oxy)-1′,2′,3′,6′-tetrahydro-2,4′-bipyridine]
EC50: 50 to 500 nM

N#Cc1cc(Cl)ccc1OCc1cccc(OC2CCN(Cc3nc4ccc(C(=O)O)cc4n3Cc3ccno3)CC2)n1 [Compound 253, 2-{[4-({6-[(4-chloro-2-cyanophenoxy)methyl]pyridin-2-yl}oxy)piperidin-1-yl]methyl}-1-[(1,2-oxazol-5-yl)methyl]-1H-1,3-benzodiazole-6-carboxylic acid]
EC50: > 500 nM

CCn1cncc1Cn1c(CN2CCC(Oc3cccc(COc4ccc(Cl)cc4C#N)c3)CC2)nc2ccc(C(=O)O)cc21 [Compound 215, 2-[(4-{3-[(4-chloro-2-cyanophenoxy)methyl]phenoxy}piperidin-1-yl)methyl]-1-[(1-ethyl-1H-imidazol-5-yl)methyl]-1H-1,3-benzodiazole-6-carboxylic acid]
EC50: < 50 nM

O=C(O)c1ccc2nc(CN3CCN(C(=O)c4ccc(COc5cccc(Cl)c5)o4)CC3)n(C[C@@H]3CCO3)c2c1 [Compound 40, 2-[(4-{5-[(3-chlorophenoxy)methyl]furan-2-carbonyl}piperazin-1-yl)methyl]-1-{[(2S)-oxetan-2-yl]methyl}-1H-1,3-benzodiazole-6-carboxylic acid]
EC50: > 500 nM

O=C(O)c1ccc2nc(CN3CCC(Oc4ccnc(COc5ccc(Cl)cc5Cl)c4)CC3)n(C[C@@H]3CCO3)c2c1 [Compound 168, 2-{[4-({2-[(2,4-dichlorophenoxy)methyl]pyridin-4-yl}oxy)piperidin-1-yl]methyl}-1-{[(2S)-oxetan-2-yl]methyl}-1H-1,3-benzodiazole-6-carboxylic acid]
EC50: < 50 nM

N#Cc1cc(F)ccc1OCc1cccc(CC2CCN(Cc3nc4ccc(C(=O)O)cc4n3C[C@@H]3CCO3)CC2)c1 [Compound 187, 2-{[4-({3-[(2-cyano-4-fluorophenoxy)methyl]phenyl}methyl)piperidin-1-yl]methyl}-1-{[(2S)-oxetan-2-yl]methyl}-1H-1,3-benzodiazole-6-carboxylic acid]
EC50: < 50 nM

N#Cc1ccc(COc2cccc(C3CCN(C(=O)c4ccc(-c5nnn[nH]5)nc4)CC3)n2)c(F)c1 [Example 83, 4-(((6-(1-(6-(1H-Tetrazol-5-yl)nicotinoyl)piperidin-4-yl)pyridin-2-yl)oxy)methyl)-3-fluorobenzonitrile]
EC50: < 50 nM

N#Cc1cc(F)ccc1OCc1cccc(OC2CCN(Cc3nc4ccc(C(=O)O)cc4n3C[C@@H]3CCO3)CC2)c1 [Example 206, (S)-2-((4-(3-((2-Cyano-4-fluorophenoxy)methyl)phenoxy)piperidin-1-yl)methyl)-1-(oxetan-2-ylmethyl)-1H-benzo[d]imidazole-6-carboxylic acid]
EC50: < 50 nM

CCn1cncc1Cn1c(CN2CCN(C(=O)c3cccc(N(C)c4ccc(C)cc4Cl)c3)CC2)nc2ccc(C(=O)O)cc21 [Compound 54, 2-[(4-{3-[(2-chloro-4-methylphenyl)(methyl)amino]benzoyl}piperazin-1-yl)methyl]-1-[(1-ethyl-1H-imidazol-5-yl)methyl]-1H-1,3-benzodiazole-6-carboxylic acid]
EC50: 50 to 500 nM
